Reference: the supplement of paper PMC10307832

Legend:
Assay in all cases: relative viability (nuclei count vs DMSO), 5 days (fraction); higher = more cells survive
AT-7519 + Vorinostat = compound: O=C(NC1CCNCC1)c1n[nH]cc1NC(=O)c1c(Cl)cccc1Cl [AT-7519] + O=C(CCCCCCC(=O)Nc1ccccc1)NO [Vorinostat] (partner 1 µM)
Procedure, shortened: (§1)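 A single step with final 0.05% Triton X-100, 1% formaldehyde and 1 ug/ml Hoechst fixed the cells and stained nuclei 5 days after treatment. Lung cancer cell lines in 1536-well plates had been treated by pin tool the day after seeding with one drug alone or a fixed anchor-drug dose plus five library-drug doses (not always all listed) in √10 steps, and nuclei were counted on 4× images. Relative viability is the ratio of nuclei in treated wells to nuclei in vehicle wells, taken as the median of duplicate plates.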

[1] = compound: C1=CC2=C(C=C(C(=C2N=C1)O)N=NC3=CC4=C(C=C3)C=C(C=C4)S(=O)(=O)O)S(=O)(=O)O + C[C@@H](Oc1cc(-c2cnn(C3CCNCC3)c2)cnc1N)c1c(Cl)ccc(F)c1Cl [Crizotinib] (partner 1 µM)
Procedure, shortened: as §1

AT-7519 + Tozasertib = compound: O=C(NC1CCNCC1)c1n[nH]cc1NC(=O)c1c(Cl)cccc1Cl [AT-7519] + Cc1cc(Nc2cc(N3CCN(C)CC3)nc(Sc3ccc(NC(=O)C4CC4)cc3)n2)n[nH]1 [Tozasertib] (partner 0.1 µM)
Procedure, shortened: as §1

[2] = compound: C1=CC2=C(C=C(C(=C2N=C1)O)N=NC3=CC4=C(C=C3)C=C(C=C4)S(=O)(=O)O)S(=O)(=O)O + Nc1ncn([C@H]2C[C@H](O)[C@@H](CO)O2)c(=O)n1 [Decitabine] (partner 2 µM)
Procedure, shortened: as §1

| Cell Line | relative viability (AT-7519 + Vorinostat; first compound 0.01 µM) | relative viability (AT-7519 + Vorinostat; first compound 0.03162 µM) | relative viability (AT-7519 + Vorinostat; first compound 0.3162 µM) | relative viability (AT-7519 + Vorinostat; first compound 1 µM) | relative viability ([1]; first compound 0.08 µM) | relative viability ([1]; first compound 0.253 µM) | relative viability ([1]; first compound 0.8 µM) | relative viability ([1]; first compound 2.53 µM) | relative viability ([1]; first compound 8 µM) | relative viability (AT-7519 + Tozasertib; first compound 0.01 µM) | relative viability (AT-7519 + Tozasertib; first compound 0.03162 µM) | relative viability (AT-7519 + Tozasertib; first compound 0.3162 µM) | relative viability (AT-7519 + Tozasertib; first compound 1 µM) | relative viability ([2]; first compound 0.08 µM) | relative viability ([2]; first compound 0.253 µM) | relative viability ([2]; first compound 0.8 µM) | relative viability ([2]; first compound 2.53 µM) | relative viability ([2]; first compound 8 µM) |
| --- | --- | --- | --- | --- | --- | --- | --- | --- | --- | --- | --- | --- | --- | --- | --- | --- | --- | --- |
| NCI-H2085 | 0.783 | 0.78 | 0.74 | 0.929 | 0.956 | 0.891 | 0.855 | 0.85 | 0.725 | 0.768 | 0.853 | 0.787 | 0.819 | 0.561 | 0.53 | 0.496 | 0.631 | 0.546 |
| SW 1573 | 0.812 | 0.696 | 0.615 | 0.231 | 0.842 | 0.78 | 0.836 | 0.85 | 0.742 | 0.151 | 0.151 | 0.143 | 0.125 | 0.55 | 0.494 | 0.419 | 0.494 | 0.275 |
| NCI-H727 | 1.17 | 1.08 | 1.11 | 0.794 | 1.17 | 0.76 | 0.798 | 0.936 | 0.772 | 0.574 | 0.551 | 0.519 | 0.367 | 0.951 | 0.854 | 0.793 | 0.929 | 0.801 |
| NCI-H441 | 0.838 | 0.834 | 0.796 | 0.693 | 0.762 | 0.672 | 0.631 | 0.714 | 0.601 | 0.788 | 0.565 | 0.573 | 0.343 | 0.245 | 0.246 | 0.238 | 0.252 | 0.248 |
| LOU-NH91 | 0.932 | 1 | 0.897 | 0.82 | 0.765 | 0.704 | 0.739 | 0.79 | 0.717 | 0.722 | 0.679 | 0.676 | 0.57 | 0.865 | 0.791 | 0.834 | 0.791 | 0.841 |
| NCI-H3122 | 1.06 | 1.07 | 1.04 | 0.757 | 0.285 | 0.29 | 0.275 | 0.271 | 0.274 | 0.535 | 0.41 | 0.175 | 0.136 | 0.415 | 0.471 | 0.472 | 0.448 | 0.439 |
| NCI-H460 | 0.569 | 0.619 | 0.674 | 0.0847 | 1.16 | 0.98 | 0.85 | 1.09 | 0.836 | 0.699 | 0.473 | 0.462 | 0.193 | 0.506 | 0.487 | 0.501 | 0.497 | 0.387 |
| NCI-H650 | 0.504 | 0.459 | 0.46 | 0.599 | 0.738 | 0.79 | 0.764 | 0.712 | 0.818 | 0.784 | 0.646 | 0.716 | 0.675 | 0.324 | 0.354 | 0.329 | 0.317 | 0.31 |
| NCI-H661 | 0.792 | 0.829 | 0.867 | 0.261 | 1.03 | 0.905 |  | 1.01 | 0.971 | 0.378 | 0.352 | 0.392 | 0.314 | 0.566 | 0.446 | 0.58 | 0.551 | 0.573 |
| NCI-H1734 | 0.723 | 0.831 | 0.739 | 0.535 | 0.733 | 0.66 | 0.724 | 0.64 | 0.662 | 0.296 | 0.261 | 0.25 | 0.102 | 0.493 | 0.439 | 0.461 | 0.488 | 0.503 |
| LXF-289 | 0.815 | 0.884 | 0.771 | 0.773 | 0.886 | 0.762 | 0.792 | 0.835 | 0.741 | 0.159 | 0.184 | 0.195 | 0.178 | 0.412 | 0.383 | 0.395 | 0.371 | 0.31 |
| H3255 | 0.794 | 0.816 | 0.905 | 0.787 | 0.842 | 1.02 | 0.834 | 0.669 | 0.874 | 0.998 | 0.506 | 0.622 | 0.582 | 0.652 | 0.635 | 0.58 | 0.655 | 0.585 |
| 201T | 0.975 | 0.952 | 1.01 | 1.12 | 1.1 | 1.07 | 1.02 | 1.09 | 0.995 | 1.01 | 1.01 | 0.946 | 0.977 | 0.887 | 0.848 | 0.873 | 0.87 | 0.845 |
| NCI-H2126 | 0.79 | 0.731 | 0.646 | 0.668 | 1.09 | 0.937 | 0.993 | 1.03 | 1.01 | 0.946 | 0.865 | 0.504 | 0.32 | 0.577 | 0.567 | 0.599 | 0.612 | 0.609 |
| HOP-62 | 0.555 | 0.608 | 0.682 | 0.565 | 1.14 | 0.725 | 0.701 | 1.09 | 1.02 | 0.344 | 0.279 | 0.353 | 0.399 | 0.186 | 0.206 | 0.24 | 0.254 | 0.228 |
| NCI-H520 | 0.712 | 0.793 | 0.659 | 0.429 | 0.973 | 0.808 | 0.802 | 0.692 | 0.869 | 0.438 | 0.453 | 0.399 | 0.385 | 0.525 | 0.519 | 0.542 | 0.468 | 0.508 |
| NCI-H1755 | 0.769 | 0.693 | 0.839 | 0.814 | 0.977 | 0.819 | 0.858 | 0.938 | 0.849 | 0.489 | 0.618 | 0.578 | 0.547 | 0.771 | 0.679 | 0.714 | 0.737 | 0.698 |
| NCI-H2023 | 0.759 | 0.503 | 0.46 | 0.269 | 0.831 | 0.702 | 0.654 | 0.726 | 0.483 | 0.362 | 0.379 | 0.295 | 0.135 | 0.24 | 0.243 | 0.258 | 0.24 | 0.19 |
